Data on eleven compounds can be found in PubChem BioAssay (NCI).

Test systems include A549 NSCLC; ACHN renal; DU-145 prostate; HCC-2998 colon; MALME-3M melanoma; MDA-MB-435; MOLT-4 leukemia; OVCAR-4 ovarian; RPMI-8226 leukemia; SF-539 CNS.
Assay in all cases: growth of human tumour cells (NCI), 48 h

SMILES strings stand for the structures.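 Method: 48-hour compound exposure of cells in 96-well plates, five concentrations, linear interpolation of endpoints. TGI marks complete inhibition of growth.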

Regarding `CCOC(=O)/C(C(=O)c1ccc[nH]1)=C1/CCCN1C`, the TGI with A549 NSCLC, in the test on ACHN renal, in the test on DU-145 prostate, in the test on HCC-2998 colon, in the test on MALME-3M melanoma and in the test with MDA-MB-435 was more than 100 µM each time. Further, the TGI in the test on MOLT-4 leukemia, with OVCAR-4 ovarian, in the test with RPMI-8226 leukemia and in the test with SF-539 CNS was more than 100 µM in each case.

For `O=C(OC1C#CCSCC#C/C=C\1)c1ccc2c(c1)C(=O)c1ccccc1C2=O` (stereo not given), the TGI in the test with A549 NSCLC, in the test with ACHN renal, in the test on DU-145 prostate, in the test on HCC-2998 colon, in the test with MALME-3M melanoma and with MDA-MB-435 was more than 100 µM each time. For the same compound, the TGI in the test with MOLT-4 leukemia was more than 100 µM; in the test on OVCAR-4 ovarian it was more than 100 µM; in the test on RPMI-8226 leukemia, more than 100 µM; with SF-539 CNS it was 40.7 µM.

In the case of `COc1ccc(C(CC(=O)c2cccs2)C(=O)c2ccc3c(c2)OCO3)cc1` (stereo not given), the TGI in the test on A549 NSCLC, with ACHN renal, with DU-145 prostate, with HCC-2998 colon, with MALME-3M melanoma and with MDA-MB-435 was more than 100 µM in each case. Also, the TGI in the test on MOLT-4 leukemia, in the test on OVCAR-4 ovarian, in the test with RPMI-8226 leukemia and with SF-539 CNS was more than 100 µM each time.

Regarding `Cc1c(CCCl)c(Cl)n2c(nc3ccccc32)c1C#N`, the TGI with A549 NSCLC was more than 100 µM; in the test with ACHN renal it was 2.14 µM; with DU-145 prostate, 4.56 µM; in the test on HCC-2998 colon, 2.94 µM; in the test on MALME-3M melanoma, 2.62 µM; in the test on MDA-MB-435 it was 2.22 µM. Also, the TGI in the test with MOLT-4 leukemia stood at 0.653 µM; with OVCAR-4 ovarian, 3.29 µM; in the test with RPMI-8226 leukemia, 0.385 µM; in the test on SF-539 CNS, 2.81 µM.

On to `O=C(O)COc1c(Cl)cc(Cl)c(C(c2c(Cl)cc(Cl)c(OCC(=O)O)c2Cl)C(Cl)(Cl)Cl)c1Cl`, for which the TGI with A549 NSCLC is 83.8 µM; in the test with ACHN renal, more than 100 µM; in the test on DU-145 prostate, more than 100 µM; in the test on HCC-2998 colon, 28.6 µM; in the test on MALME-3M melanoma, 76.7 µM; in the test on MDA-MB-435, 78.2 µM. For the same compound, the TGI in the test with MOLT-4 leukemia is more than 100 µM; with OVCAR-4 ovarian, more than 100 µM; with RPMI-8226 leukemia it was 85.9 µM; with SF-539 CNS, more than 100 µM.

For the compound `Cc1ccc(NC(c2ccccc2)P(=O)(c2ccccc2)c2ccccc2)cc1` (stereo not given), the TGI with A549 NSCLC, in the test with ACHN renal, with DU-145 prostate, in the test with HCC-2998 colon, in the test with MALME-3M melanoma and with MDA-MB-435 was more than 100 µM each time. The TGI in the test on MOLT-4 leukemia, in the test with OVCAR-4 ovarian, with RPMI-8226 leukemia and in the test on SF-539 CNS was more than 100 µM each time.

As to `CCc1nnc2sc(-c3ccc(-c4ccccc4[N+](=O)[O-])o3)nn12`, the TGI was more than 100 µM in the test with A549 NSCLC; more than 100 µM in the test with ACHN renal; more than 100 µM in the test with DU-145 prostate; more than 100 µM in the test with HCC-2998 colon; more than 100 µM in the test with MALME-3M melanoma; 49.8 µM in the test with MDA-MB-435. Moreover, the TGI in the test with MOLT-4 leukemia is 62.8 µM; in the test on OVCAR-4 ovarian, more than 100 µM; in the test on RPMI-8226 leukemia, more than 100 µM; in the test with SF-539 CNS it was 89 µM.

As for `O=C1N[C@@H]([C@H]2CC[C@H](Cl)CN2)C(=O)N[C@H]1[C@H]1CC[C@H](Cl)CN1`, the TGI with A549 NSCLC came to 76.5 µM; in the test on ACHN renal, 1.5 µM; with DU-145 prostate, 23.8 µM; in the test with HCC-2998 colon it was 6.42 µM; in the test on MALME-3M melanoma, 8.59 µM; in the test on MDA-MB-435, 32 µM. Further, the TGI in the test on MOLT-4 leukemia turned out to be 13.3 µM; in the test on OVCAR-4 ovarian, 8.78 µM; in the test on RPMI-8226 leukemia it was 75.1 µM; in the test on SF-539 CNS, 4.27 µM.

Consider `C[N+]1(CC[N+]2(C)CCCC2c2cccnc2)CCCC1c1cccnc1` (stereo not given), for which the TGI with A549 NSCLC, with ACHN renal, in the test with DU-145 prostate, in the test with HCC-2998 colon, in the test on MALME-3M melanoma and with MDA-MB-435 was more than 100 µM throughout. Besides, the TGI in the test on MOLT-4 leukemia, in the test on OVCAR-4 ovarian, in the test on RPMI-8226 leukemia and in the test on SF-539 CNS was more than 100 µM each time.

`CCn1c(=O)c2nc(SC)sc2n(-c2ccccc2)c1=S`: the TGI in the test with A549 NSCLC, in the test with ACHN renal, in the test with DU-145 prostate, with HCC-2998 colon, with MALME-3M melanoma and in the test with MDA-MB-435 was more than 100 µM in each case. In addition, the TGI in the test on MOLT-4 leukemia, in the test with OVCAR-4 ovarian, in the test on RPMI-8226 leukemia and in the test on SF-539 CNS was more than 100 µM throughout.

Regarding `Cc1cccc(NC(=S)NNC(=O)c2cc(-c3ccccc3)nc3ccccc23)c1`, the TGI is 70.7 µM in the test on A549 NSCLC; more than 100 µM with ACHN renal; more than 100 µM in the test on DU-145 prostate; 57.3 µM with HCC-2998 colon; 83.8 µM in the test on MALME-3M melanoma; 85.7 µM in the test with MDA-MB-435. Moreover, the TGI was 84.3 µM with MOLT-4 leukemia, more than 100 µM in the test on OVCAR-4 ovarian, 83.6 µM with RPMI-8226 leukemia and 58.9 µM with SF-539 CNS.
